These results are taken from patent US10793556B2, “8-amino-2-oxo-1,3-diaza-spiro-[4.5]-decane derivatives” (Grünenthal GmbH, priority 2016, dated 2020).

For this assay, the target named is human mu-opioid peptide (hMOP) receptor (Homo sapiens (Human), UniProt P35372). As to the kind of experiment: hMOP receptor binding assay (SPA, [3H]naloxone).
human mu-opioid peptide (hMOP) receptor, sequence (P35372 whole entry): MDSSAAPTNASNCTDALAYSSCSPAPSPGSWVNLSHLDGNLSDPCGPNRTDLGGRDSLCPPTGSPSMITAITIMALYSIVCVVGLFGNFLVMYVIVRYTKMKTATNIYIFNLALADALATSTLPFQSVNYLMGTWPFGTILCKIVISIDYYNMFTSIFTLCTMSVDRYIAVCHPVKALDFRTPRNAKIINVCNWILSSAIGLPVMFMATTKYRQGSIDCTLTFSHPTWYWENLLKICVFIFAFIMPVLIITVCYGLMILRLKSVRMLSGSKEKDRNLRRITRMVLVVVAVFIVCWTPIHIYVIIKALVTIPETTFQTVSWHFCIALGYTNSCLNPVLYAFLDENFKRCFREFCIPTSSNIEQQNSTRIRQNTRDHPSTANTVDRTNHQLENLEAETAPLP

What is called Ki is the equilibrium dissociation constant of an inhibitor or competing ligand from its target. Lower therefore signals a stronger hold on the target. The molecule `CN(C)[C@]1(c2ccccc2)CC[C@]2(CC1)CN(CC(C)(C)N1C(=O)CCC1=O)C(=O)N2CC1CC1` [SC_4084, CIS-1-[2-[1-(Cyclopropyl-methyl)-8-dimethylamino-2-oxo-8-phenyl-1,3-diazaspiro[4.5]decan-3-yl]-1,1-dimethyl-ethyl]-pyrrolidine-2,5-dione] displayed a Ki of 2470 nM.
